Measurements taken from patent US20180271847A1, “TREATMENT OF ACUTE TRAUMATIC INJURY” (priority 2015, published 2018).

How the values were obtained:
Type in all cases: in vivo
[1] = tested on: contusion injury to the spinal cord; assay: Lesion volume 3 days after spinal cord contusion injury; settings: rats with spinal cord contusion, sacrificed 3 days after injury
Protocol: FIG. 7 is a graph showing the unexpected ability of 4-AP to modulate outcomes of traumatic injury that are of relevance to the injury in all tissues of the body is the ability to decrease lesion size. In these experiments, rats received identical injuries as discussed in Example 1, except that these rats were sacrificed 3 days after injury. Lesion size, in cubic millimeters (mm^3) was calculated by imaging collected tissue sections covering the full dimensions of the injury using Stereolnvestigator and contours were traced to cover the region of the tissue in which damage was apparent. All slides were measured by a blinded individual. Lesion volume was thus determined. […]
Still another example of the unexpected ability of 4-AP to modulate outcomes of traumatic injury that are of relevance to such injury in all tissues of the body is the ability to decrease lesion size. […] Lesion size, in cubic millimeters (mm^3) was calculated by imaging collected tissue sections covering the full dimensions of the injury using Stereolnvestigator and contours were traced to cover the region of the tissue in which damage was apparent. All slides were measured by a blinded individual. Lesion volume was thus determined.

lipofuscin = assay: Auto-fluorescence / lipofuscin accumulation after spinal cord contusion injury; settings: rats with contusion injuries to the spinal cord
Source text: 4-aminopyridine administration decreases auto-fluorescence following contusion injury to the spinal cord. One of the responses to tissue injury in a broad variety of tissues is the accumulation of substances that may be given the general name of lipofuscin, a name given to lipid-containing residues of lysosomal digestion. This pigment is thought to be the product of oxidation of unsaturated fatty acids and is considered indicative of membrane damage of a nature that occurs widely in tissue injury, a variety of diseases and in aging. Lipofuscin is most readily observed as an auto-fluorescent component of tissue that is seen when tissue is excited with a wide range of […] wavelengths normally used for studying fluorescently labeled proteins, such as antibodies, that are widely used in studying all of the tissues of the body. Lipofuscin accumulation has been reported for cell types of a wide range of tissues, particularly after injury, including liver, kidney, heart muscle, retina, adrenal gland, nerve cells, and red-blood cells, in post-traumatic arthritis and in other tissues.
This is another wholly unexpected ability of 4-AP to beneficially modulate an outcome of traumatic injury that is applicable to a wide range of different tissues.

[2] = tested on: glial fibrillary acidic protein (GFAP); assay: GFAP labeling (scarring marker) in spinal cord sections after contusion injury; settings: rats with spinal cord contusion, compared with saline
Source text: FIG. 6A and FIG. 6B are images illustrating a section of spinal cords of placebo (saline) (FIG. 6A) and 4-AP (FIG. 6B) treated animals labeled with antibody against glial fibrillary acidic protein (GFAP), which is a marker of scarring in all regions of the central nervous system, (bright spots in FIG. 6A) and DAPI (bright spots in FIG. 6B). indicates the lesion edge. The size bar represents 100 μm. […] These outcomes provide further evidence that 4-AP administration is regulating a response to traumatic injury that is of relevance to traumatic injury in all tissues.
FIGS. 6A-6B further examines expression of a protein called glial fibrillary acidic protein (GFAP), which is one of the markers of scarring in all regions of the central nervous system. […] These outcomes provide further evidence that 4-AP administration is regulating a response to traumatic injury that is of relevance to traumatic injury in all tissues.

Sox 9 = Sox 9 immunofluorescence in spinal cord sections after contusion injury; settings: rats with contusion injuries to the spinal cord, versus control
Source text: FIG. 5A and FIG. 5B are images illustrating a section of control (FIG. 5A) and 4-AP (FIG. 5B) treated animals labeled with anti-Sox 9 (bright spots) and DAPI (darker grey). Arrows highlight the cells that were used to define the baseline threshold for Sox 9 immunofluorescence. Size bar represents 20 μm. FIG. 5C is a graph showing quantification of FIG. 5A and FIG. 5B using the threshold shown in A as baseline. N=3, *p=0.045 t-test.
The ability of daily 4-AP administration to provide benefit at the tissue level was investigated, leading to the wholly unexpected discovery of effects of 4-AP that are relevant to traumatic injuries in a wide range of tissues. The first such observation came from examination of the expression of Sox 9, a transcription factor that is expressed in a wide range of tissues of the nervous system, other excitable tissues and tissues that are not considered to be excitable (including, for example, pancreas, lung, chondrocytes, cartilage, liver, breast, prostate, colorectal, intestine and testis). Among other roles, Sox 9 controls production and expression of chondroitin sulfate proteoglycan, a critical component of scar in many different tissues. […]

[3] = tested on: traumatic damage to the peripheral nervous system; assay: Recovery of function after traumatic damage to the peripheral nervous system; settings: following traumatic damage to the peripheral nervous system
motor neurons = assay: Count of large NeuN+ putative motor neurons in spinal cord 28 days after injury; settings: rats, 28 days after spinal cord injury; large NeuN+ cells, ventral side of the cord
Source text: FIGS. 8A-8C show the rescue of motor neurons by administration of 4-AP in acute traumatic injury to the spinal cord of the central nervous system. Another example of an unanticipated ability of the administration of 4-AP to provide benefit in acute traumatic injury was obtained by examining the number of motor neurons present in spinal cords of rats analyzed 28 days after injury, as in Example 1. Tissue sections were labeled with antibodies to the NeuN antigen, which is a marker of all neuronal populations. Due to the size and location of these neurons, they can only be motor neurons. Large neurons on the ventral side of the cord were then counted, in regions similarly distal or proximal to the lesion site. […] FIGS. 8B and 8C are graphs showing quantification of large NeuN+ cells in 1 mm^3 region proximal (p=0.06) and distal (p=0.04) to the lesion edge in 4-AP and control sections. […]
Rescue of motor neurons by administration of 4-AP in acute traumatic injury to the spinal cord of the central nervous system. Another example of an unexpected ability of the administration of 4-AP to provide benefit in acute traumatic injury was obtained by examining the number of motor neurons present in spinal cords of rats analyzed 28 days after injury, as in Example 1. […] Large neurons on the ventral side of the cord were then counted, in regions similarly distal or proximal to the lesion site.

## Nc1ccncc1 [4-AP, 4-aminopyridine]
[1]
  lesion size (lesion volume): greatly decreasing lesion size
lipofuscin
  lipofuscin accumulation (tissue auto-fluorescence): little evidence of lipofuscin accumulation
[2]
  GFAP, marker of central nervous system scarring: greatly decreased
Sox 9
  expression of Sox9: greatly decrease the expression of Sox9
[3]
  recovery of motor function and electrophysiological function: more rapid recovery of motor function and electrophysiological function
Motor neurons
  number of motor neurons in regions distal to the injury: clearly significant increase in the number of motor neurons
  number of motor neurons in regions proximal to the injury: very similar degree of increase in motor neurons
